Test results published in ChEMBL document CHEMBL3885881, “DrugMatrix”.

Species on record: Rattus norvegicus
Test: DrugMatrix - Regimen: Daily Repeat
Type: toxicity, organism-based, Sprague-Dawley
Set-up: regimen Daily Repeat, gender Male, age 6-8 weeks
Conditions: in vivo, po, route oral GAVAGE, vehicle .5 % CMC; for ALANINE AMINOTRANSFERASE / ALBUMIN / ALKALINE PHOSPHATASE / ASPARTATE AMINOTRANSFERASE / BLOOD UREA NITROGEN / CARBON DIOXIDE / CHLORIDE / CHOLESTEROL / CREATINE PHOSPHOKINASE / CREATININE / GLUCOSE / LACTATE DEHYDROGENASE / LIPASE / PHOSPHORUS / POTASSIUM / SODIUM / TOTAL BILIRUBIN / TOTAL PROTEIN / URIC ACID: tissue Plasma; for ABSOLUTE BASOPHIL / ABSOLUTE EOSINOPHIL / ABSOLUTE LYMPHOCYTE / ABSOLUTE MONOCYTE / ABSOLUTE SEGMENTED NEUTROPHIL / BASOPHIL / EOSINOPHIL / ERYTHROCYTE COUNT / HEMATOCRIT / HEMOGLOBIN / LEUKOCYTE COUNT / LYMPHOCYTE / MEAN CORPUSCULAR HEMOGLOBIN / MEAN CORPUSCULAR HEMOGLOBIN CONCENTRATION / MEAN CORPUSCULAR VOLUME / MONOCYTE / NEUTROPHIL / NUCLEATED RED BLOOD CELLS / PLATELET COUNT: tissue Blood
[1] = 88 mg/kg, 72 h, dose level Low, time 3 day
[2] = 88 mg/kg, 120 h, dose level Low, time 5 day
[3] = 2000 mg/kg, 72 h, dose level High, time 3 day

CC(C)[C@H](N)C(=O)OCCOCn1cnc2c(=O)[nH]c(N)nc21 [VALACYCLOVIR]
ALANINE AMINOTRANSFERASE [1]: 55 u/L
ALBUMIN [1]: 4.33 G/DL
ALKALINE PHOSPHATASE [1]: 415.33 u/L
ASPARTATE AMINOTRANSFERASE [1]: 100.67 u/L
BLOOD UREA NITROGEN [1]: 14.67 mg/dL
CARBON DIOXIDE [1]: 27 mmol/L
CHLORIDE [1]: 101 MEQ/L
CHOLESTEROL [1]: 77 mg/dL
CREATINE PHOSPHOKINASE [1]: 717.67 u/L
CREATININE [1]: 0.2 mg/dL
GLUCOSE [1]: 147.33 mg/dL
LACTATE DEHYDROGENASE [1]: 667.67 u/L
LIPASE [1]: 10.67 u/L
PHOSPHORUS [1]: 12.5 mg/dL
POTASSIUM [1]: 6.48 MEQ/L
SODIUM [1]: 144.3 MEQ/L
TOTAL BILIRUBIN [1]: 0.2 mg/dL
TOTAL PROTEIN [1]: 6.23 G/DL
URIC ACID [1]: 1.4 mg/dL
ABSOLUTE BASOPHIL [2]: 0 CELLS/uL
ABSOLUTE EOSINOPHIL [2]: 94 CELLS/uL
ABSOLUTE LYMPHOCYTE [2]: 9072.33 CELLS/uL
ABSOLUTE MONOCYTE [2]: 117.33 CELLS/uL
ABSOLUTE SEGMENTED NEUTROPHIL [2]: 1283 CELLS/uL
BASOPHIL [2]: 0%
EOSINOPHIL [2]: 0.67%
ERYTHROCYTE COUNT [2]: 5.42 x10E6/uL
HEMATOCRIT [2]: 33.93%
HEMOGLOBIN [2]: 13.17 G/DL
LEUKOCYTE COUNT [2]: 10.57 x10E3/uL
LYMPHOCYTE [2]: 86.33%
MEAN CORPUSCULAR HEMOGLOBIN [2]: 24.3 pg
MEAN CORPUSCULAR HEMOGLOBIN CONCENTRATION [2]: 38.83 G/DL
MEAN CORPUSCULAR VOLUME [2]: 62.57 fL
MONOCYTE [2]: 1.33%
NEUTROPHIL [2]: 11.67%
NUCLEATED RED BLOOD CELLS [2]: 0 /100WBC
PLATELET COUNT [2]: 1317.67 x10E3/uL
ALANINE AMINOTRANSFERASE [2]: 58.33 u/L
ALBUMIN [2]: 4.43 G/DL
ALKALINE PHOSPHATASE [2]: 393 u/L
ASPARTATE AMINOTRANSFERASE [2]: 91 u/L
BLOOD UREA NITROGEN [2]: 18 mg/dL
CARBON DIOXIDE [2]: 28.33 mmol/L
CHLORIDE [2]: 103.33 MEQ/L
CHOLESTEROL [2]: 75.33 mg/dL
CREATINE PHOSPHOKINASE [2]: 215.67 u/L
CREATININE [2]: 0.21 mg/dL
GLUCOSE [2]: 137.33 mg/dL
LACTATE DEHYDROGENASE [2]: 175.67 u/L
LIPASE [2]: 9.33 u/L
PHOSPHORUS [2]: 13.03 mg/dL
POTASSIUM [2]: 7.1 MEQ/L
SODIUM [2]: 147.83 MEQ/L
TOTAL BILIRUBIN [2]: 0.23 mg/dL
TOTAL PROTEIN [2]: 6.33 G/DL
URIC ACID [2]: 1.57 mg/dL
ABSOLUTE BASOPHIL [3]: 0 CELLS/uL
ABSOLUTE EOSINOPHIL [3]: 83 CELLS/uL
ABSOLUTE LYMPHOCYTE [3]: 8794.67 CELLS/uL
ABSOLUTE MONOCYTE [3]: 95 CELLS/uL
ABSOLUTE SEGMENTED NEUTROPHIL [3]: 994 CELLS/uL
BASOPHIL [3]: 0%
EOSINOPHIL [3]: 1%
ERYTHROCYTE COUNT [3]: 4.99 x10E6/uL
HEMATOCRIT [3]: 31.53%
HEMOGLOBIN [3]: 12.63 G/DL
LEUKOCYTE COUNT [3]: 9.97 x10E3/uL
LYMPHOCYTE [3]: 88%
MEAN CORPUSCULAR HEMOGLOBIN [3]: 25.3 pg
MEAN CORPUSCULAR HEMOGLOBIN CONCENTRATION [3]: 40.1 G/DL
MEAN CORPUSCULAR VOLUME [3]: 63.07 fL
MONOCYTE [3]: 1%
NEUTROPHIL [3]: 10%
NUCLEATED RED BLOOD CELLS [3]: 0 /100WBC
PLATELET COUNT [3]: 1175 x10E3/uL
ALANINE AMINOTRANSFERASE [3]: 43.33 u/L
ALBUMIN [3]: 4 G/DL
ALKALINE PHOSPHATASE [3]: 329.67 u/L
ASPARTATE AMINOTRANSFERASE [3]: 81.67 u/L
BLOOD UREA NITROGEN [3]: 79.33 mg/dL
CARBON DIOXIDE [3]: 22.67 mmol/L
CHLORIDE [3]: 101 MEQ/L
CHOLESTEROL [3]: 118.67 mg/dL
CREATINE PHOSPHOKINASE [3]: 274.33 u/L
CREATININE [3]: 1.22 mg/dL
GLUCOSE [3]: 158.33 mg/dL
LACTATE DEHYDROGENASE [3]: 182 u/L
LIPASE [3]: 10.67 u/L
PHOSPHORUS [3]: 10.07 mg/dL
POTASSIUM [3]: 5.9 MEQ/L
SODIUM [3]: 143.87 MEQ/L
TOTAL BILIRUBIN [3]: 0.23 mg/dL
TOTAL PROTEIN [3]: 6.3 G/DL
URIC ACID [3]: 1.2 mg/dL
